In patent publication US20200345021A1, “METHOD AND SYSTEM FOR ENHANCING THE EFFICACY USING IONIZED/A[…] PEROXIDE IN REDUCING MICROBIAL POPULATIONS, METHOD OF USE THEREOF” (priority 2019, published 2020):
Marks after values point to notes of the source that are not given here.

Tested on: Listeria innocua
Assay: Effect of cold plasma activation on efficacy of ionized/aerosolized H2O2 against Listeria innocua (Study 2)
Format: cell-based
Conditions: for Reductions of Listeria on all types and surfaces of fresh produce except the tomato stem scar area: optimized conditions
Description: To minimize the risk of possible bacteria becoming airborne during treatments, attenuated and non-pathogenic bacteria were used in the study. Two strains of non-pathogenic S. Typhimurium (ATCC 53647 and 53648) and three strains of L. innocua (ATCC 33090, ATCC 51742 and ATCC BAA680) were obtained from American Type Culture Collection (ATCC) (Manassas, Va., USA). Further studies used E. coli O157:H7 (ATCC 700728), S. Typhimurium (ATCC 53647 and 53648), and L. innocua (ATCC 33090) obtained from American Type Culture Collection (ATCC) (Manassas, Va., USA) and maintained as a part of the culture collection at the USDA Eastern Regional Research Center (Wyndmoor, Pa. USA). The bacteria were made to be resistant to nalidixic acid by successive growth in Trypic Soy Broth (TSB) (Difco, Sparks, Md., USA) with increasing nalidixic acid concentrations. All strains were stored at −80° C. in 1 mL of TSB containing 10% glycerol. Working cultures of S. Typhimurium and L. innocua were maintained in 9 mL TSB (supplemented with 100 μg/mL nalidixic acid for S. Typhimurium) at 4° C. after incubating at 37° C. for […], respectively, and sub-cultured each time.
Each strain of S. Typhimurium and L. innocua was cultured in 9 mL TSB (supplemented with 100 μg/mL nalidixic acid for S. Typhimurium) and incubated at 37° C. for 40 h and 48 h, respectively, harvested by centrifugation at 4000×g for 10 min at 4° C., and resuspended in 9 mL sterile Buffered Peptone Water (BPW; Difco). The pellets were resuspended in BPW to form cell suspensions with a final concentration of 108˜10^9 CFU/mL. Subsequently, suspended pellets of two strains of Salmonella and three strains of L. innocua were combined to obtain two separate culture cocktails.
Grape tomatoes, granny smith apples, romaine lettuce and cantaloupes were purchased from local markets (Philadelphia, Pa., USA) and kept at 10° C. prior to use. Fruits and vegetables were removed from 10° C. refrigeration and equilibrated to ambient temperature before being inoculated. Romaine lettuce was divided into upper green leaf and midrib tissues. Six tomatoes, six pieces (2×2 cm) of apple skins, five pieces (3×3 cm) of Romaine lettuce upper leaves, five pieces (3 cm length) of Romaine lettuce midrib area and six pieces (2×2 cm) of cantaloupe rinds with 2×3 mm thickness of flesh were used for each treatment per replicate. Bach piece w as spot inoculated with 10 μL of Salmonella and L. innocua by depositing droplets with a micropipette. The inoculated samples were dried in a bio-hood for 1 h (for tomato surfaces, romaine lettuce, apple skins and cantaloupe rinds) or 2 h (for tomato stem scars) at ambient temperature.
Produce items were placed onto a sterile test tube rack with the inoculated area facing up and the rack with produce pieces were placed inside of a treatment chamber (12×12×24 inch).
Therefore, each kind of produce was treated with and without cold plasma ionized under the same optimized conditions.
After each treatment, the tomato stem scars and surfaces with the inoculated bacteria were removed using a pair of sterile scissors. Each type of produce item from the same treatment was combined (total weight: 1.51±0.29 g for tomato stem scars; 2.07±0.15 g for tomato surfaces; 6.37±0.92 g for apple skins; 1.62±0.34 g for Romaine lettuce upper leaves: 13.30±2.97 g for Romaine lettuce midrib tissues: 9.58±1.26 g for cantaloupe rinds) and transferred into an 80 mL filtered stomacher bag. After addition of 30 mL BBL buffered peptone water into the bag, the sample in the bag was homogenized using a mini blender (Mini Mix CC, Interscience laboratories Inc., Woburn, Mass., USA) for 2 min at a setting of 4. […] Tryptic Soy Agar with 200 μg/mL pyruvate acid and 100 μg/mL nalidixic acid (TSA-PN) and PALCAM Agars (Difco) were used for the enumeration of S. Typhimurium and L. innocua, respectively.

[1] = Tomato-stem scar, three cycles of 20 s spray time plus 20 min dwell time, listed as H2O2 + cold plasma

For `OO` [H2O2, hydrogen peroxide], the “Listeria reductions for cantaloupes and two locations on lettuces” value was 2.61 to 3.40 log CFU/piece, the “Populations of Listeria innocua” value (Cantaloupe rind, 30 s spray time + 30 min dwell, ND1: not detectable (detection limit 0.70 log CFU/piece), listed as H2O2 + cold plasma) was “ND1^c” and the “Reductions of Listeria innocua” value (Cantaloupe rind, 30 s spray time + 30 min dwell, listed as H2O2 + cold plasma) was 5.10 ± 0.30^x log CFU/piece. The “Populations of Listeria innocua” value (Granny Smith apple, 8 s spray time + 30 min dwell, ND1: not detectable (detection limit 0.70 log CFU/piece), listed as H2O2 + cold plasma) was “ND1^c”, the “Reductions of Listeria innocua” value (Granny Smith apple, 8 s spray time + 30 min dwell, listed as H2O2 + cold plasma) was 5.24 ± 0.22^x log CFU/piece and the “Populations of Listeria innocua” value (Romaine lettuce-midrib, 30 s spray time + 30 min dwell, ND2: not detectable (detection limit 0.76 log CFU/piece), listed as H2O2 + cold plasma) was “ND2^c”. For the same compound, the “Reductions of Listeria innocua” value (Romaine lettuce-midrib, 30 s spray time + 30 min dwell, listed as H2O2 + cold plasma) was 5.21 ± 0.11^x log CFU/piece, the “Populations of Listeria innocua” value (Romaine lettuce-upper leaf, 30 s spray time + 30 min dwell, ND2: not detectable (detection limit 0.76 log CFU/piece), listed as H2O2 + cold plasma) was “ND2^c” and the “Reductions of Listeria innocua” value (Romaine lettuce-upper leaf, 30 s spray time + 30 min dwell, listed as H2O2 + cold plasma) was 5.19 ± 0.08^x log CFU/piece. The “Populations of Listeria innocua” value [1] was 2.94 ± 0.89^c log CFU/piece, the “Reductions of Listeria innocua” value [1] was 2.62 ± 0.89^x log CFU/piece and the “Reductions of Listeria innocua” value (Tomato-stem scar, three cycles of 20 s spray time plus 20 min dwell time, listed as iHP) was 2.36 log CFU/piece. The “Populations of Listeria innocua” value (Tomato-surface, 8 s spray time + 30 min dwell, ND1: not detectable (detection limit 0.70 log CFU/piece), listed as H2O2 + cold plasma) was “ND1^c”, the “Reductions of Listeria innocua” value (Tomato-surface, 8 s spray time + 30 min dwell, listed as H2O2 + cold plasma) was 5.16 ± 0.20^x log CFU/piece and the “Reductions of Listeria on all types and surfaces of fresh produce except the tomato stem scar area” value (listed as cold plasma-activated hydrogen peroxide (H2O2)) was > 5 log CFU/piece. The “Reductions of Listeria on all types and surfaces of fresh produce except the tomato stem scar area” value (listed as hydrogen peroxide (H2O2) with cold plasma) was “more than 5 log CFU/piece” and the “Reductions of Listeria on all types and surfaces of fresh produce except the tomato stem scar area” value (listed as iHP) was “more than 5 log CFU/piece”.
